Assay results published in patent publication US8653263B2 (Janssen Pharmaceutica, priority 2009, dated 2014).
pKi: −log10 of the molar value.

Biological target: human orexin-2 receptor (Homo sapiens (Human), UniProt O43614)
Test: Human orexin 2 receptor radioligand binding ([3H]-EMPA competition)
Details: HEK293 cells stably expressing human orexin-2 receptor; [3H]-EMPA 5 nM final; apparent Ki=IC50/(1+C/Kd), Kd=2 nM; read-out: OR 2 Ki

human orexin-2 receptor, sequence (O43614 whole entry): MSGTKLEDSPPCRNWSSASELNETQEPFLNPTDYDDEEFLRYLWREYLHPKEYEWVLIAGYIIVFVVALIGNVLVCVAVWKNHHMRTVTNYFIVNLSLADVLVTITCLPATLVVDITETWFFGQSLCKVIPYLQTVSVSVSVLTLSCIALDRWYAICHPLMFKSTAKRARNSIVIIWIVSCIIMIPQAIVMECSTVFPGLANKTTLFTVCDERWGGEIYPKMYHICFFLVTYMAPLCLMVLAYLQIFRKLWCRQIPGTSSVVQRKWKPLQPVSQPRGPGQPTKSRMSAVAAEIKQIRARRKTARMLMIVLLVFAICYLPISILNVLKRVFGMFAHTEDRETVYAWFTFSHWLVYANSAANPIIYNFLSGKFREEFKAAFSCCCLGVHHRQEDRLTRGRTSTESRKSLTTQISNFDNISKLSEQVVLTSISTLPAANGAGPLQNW

Row | Compound | pKi
1 | CCOc1ccc(OCC)c(C(=O)N2CC3CN(c4nc(C)cc(C)n4)CC3C2)c1 (centres unmarked) [Example 228, 2-[(2,5-Diethoxyphenyl)carbonyl]-5-(4,6-dimethylpyrimidin-2-yl)octahydropyrrolo[3,4-c]pyrrole] | 6.74
2 | CCOc1cccc(OCC)c1C(=O)N1CC2CN(c3nc(C)cc(C)n3)CC2C1 (centres unmarked) [Example 229, 2-[(2,6-Diethoxyphenyl)carbonyl]-5-(4,6-dimethylpyrimidin-2-yl)octahydropyrrolo[3,4-c]pyrrole] | 6.50
3 | Cc1cc(C)nc(N2CC3CN(C(=O)c4ccc(F)cc4-c4ncccn4)CC3C2)n1 (centres unmarked) [Example 231, (5-(4,6-Dimethylpyrimidin-2-yl)hexahydropyrrolo[3,4-c]pyrrol-2(1H)-yl)(4-fluoro-2-(pyrimidin-2-yl)phenyl)methanone] | 7.17
4 | Cc1cc(C)nc(N2CC3CN(C(=O)c4cccnc4-c4ncccn4)CC3C2)n1 (centres unmarked) [Example 235, (5-(4,6-Dimethylpyrimidin-2-yl)hexahydropyrrolo[3,4-c]pyrrol-2(1H)-yl)(2-(pyrimidin-2-yl)pyridin-3-yl)methanone] | 6.25
5 | Cc1cc(C)nc(N2CC3CN(C(=O)c4cccnc4-c4ccnn4C4CCCCO4)CC3C2)n1 (centres unmarked) [Example 236, (5-(4,6-Dimethylpyrimidin-2-yl)hexahydropyrrolo[3,4-c]pyrrol-2(1H)-yl)(2-(1-(tetrahydro-2H-pyran-2-yl)-1H-pyrazol-5-yl)pyridin-3-yl)methanone] | 5.00
6 | Cc1cc(C)nc(N2CC3CN(C(=O)c4cccnc4-c4ccn[nH]4)CC3C2)n1 (centres unmarked) [Example 237, (2-(1H-Pyrazol-5-yl)pyridin-3-yl)(5-(4,6-dimethylpyrimidin-2-yl)hexahydropyrrolo[3,4-c]pyrrol-2(1H)-yl)methanone] | 7.16
7 | Cc1nc(N2CC3CN(C(=O)c4cccc(F)c4-c4ncccn4)CC3C2)nc(C)c1C (centres unmarked) [Example 239, (3-Fluoro-2-(pyrimidin-2-yl)phenyl)(5-(4,5,6-trimethylpyrimidin-2-yl)hexahydropyrrolo[3,4-c]pyrrol-2(1H)-yl)methanone] | 8.15
8 | Cc1nc(N2CC3CN(C(=O)c4cccc(F)c4-n4nccn4)CC3C2)nc(C)c1C (centres unmarked) [Example 240, (3-Fluoro-2-(2H-1,2,3-triazol-2-yl)phenyl)(5-(4,5,6-trimethylpyrimidin-2-yl)hexahydropyrrolo[3,4-c]pyrrol-2(1H)-yl)methanone] | 8.15
9 | COc1ccc(-n2nccn2)c(C(=O)N2CC3CN(c4nc(C)c(C)c(C)n4)CC3C2)c1 (centres unmarked) [Example 241, (5-Methoxy-2-(2H-1,2,3-triazol-2-yl)phenyl)(5-(4,5,6-trimethylpyrimidin-2-yl)hexahydropyrrolo[3,4-c]pyrrol-2(1H)-yl)methanone] | 7.77
10 | O=C(c1cccc(F)c1-n1nccn1)N1CC2CN(c3ncc4cc(F)ccc4n3)CC2C1 (centres unmarked) [Example 242, (3-Fluoro-2-(2H-1,2,3-triazol-2-yl)phenyl)(5-(6-fluoroquinazolin-2-yl)hexahydropyrrolo[3,4-c]pyrrol-2(1H)-yl)methanone] | 7.41
11 | O=C(c1cccc(F)c1-c1ncccn1)N1CC2CN(c3ncc4cc(F)ccc4n3)CC2C1 (centres unmarked) [Example 243, (3-Fluoro-2-(pyrimidin-2-yl)phenyl)(5-(6-fluoroquinazolin-2-yl)hexahydropyrrolo[3,4-c]pyrrol-2(1H)-yl)methanone] | 7.80
12 | COc1ccc(-n2nccn2)c(C(=O)N2CC3CN(c4cnc5cc(F)c(F)cc5n4)CC3C2)c1 (centres unmarked) [Example 245, (5-(6,7-Difluoroquinoxalin-2-yl)hexahydropyrrolo[3,4-c]pyrrol-2(1H)-yl)(5-methoxy-2-(2H-1,2,3-triazol-2-yl)phenyl)methanone] | 7.24
13 | O=C(c1c(F)cccc1-n1nccn1)N1CC2CN(c3cnc4cc(F)c(F)cc4n3)CC2C1 (centres unmarked) [Example 246, (5-(6,7-Difluoroquinoxalin-2-yl)hexahydropyrrolo[3,4-c]pyrrol-2(1H)-yl)(2-fluoro-6-(2H-1,2,3-triazol-2-yl)phenyl)methanone] | 7.96
14 | O=C(c1cccc(F)c1Br)N1CC2CN(c3ncc4cc(F)ccc4n3)CC2C1 (centres unmarked) [Example 247, (2-Bromo-3-fluorophenyl)(5-(6-fluoroquinazolin-2-yl)hexahydropyrrolo[3,4-c]pyrrol-2(1H)-yl)methanone] | 6.19
15 | Cc1ccc(-c2cc(F)ccc2C(=O)N2CC3CN(c4nc(C)cc(C)n4)CC3C2)nc1 (centres unmarked) [Example 248, (5-(4,6-dimethylpyrimidin-2-yl)hexahydropyrrolo[3,4-c]pyrrol-2(1H)-yl)(4-fluoro-2-(5-methylpyridin-2-yl)phenyl)methanone] | 6.77
16 | Cc1cc(N2CC3CN(C(=O)c4nc(C)sc4-c4ccc(F)cc4)CC3C2)nc(C)n1 (centres unmarked) [Example 253, 2-(2,6-Dimethylpyrimidin-4-yl)-5-{[5-(4-fluorophenyl)-2-methyl-1,3-thiazol-4-yl]carbonyl}octahydropyrrolo[3,4-c]pyrrole] | 5.30
17 | Cc1cc(C)nc(N2CC3CN(C(=O)c4nc(C)sc4-c4ccc(F)cc4)CC3C2)n1 (centres unmarked) [Example 254, 2-(4,6-Dimethylpyrimidin-2-yl)-5-{[5-(4-fluorophenyl)-2-methyl-1,3-thiazol-4-yl]carbonyl}octahydropyrrolo[3,4-c]pyrrole] | 5.66

More lines, now with the values ahead:

Row | pKi | Compound
18 | 6.20 | Cc1ccc(C)c(C(=O)N2CC3CN(c4nc(C)cc(C)n4)CC3C2)c1 (centres unmarked) [Example 224, 2-[(2,5-Dimethylphenyl)carbonyl]-5-(4,6-dimethylpyrimidin-2-yl)octahydropyrrolo[3,4-c]pyrrole]
19 | 6.37 | Cc1cc(C)nc(N2CC3CN(C(=O)c4c(C)cccc4C)CC3C2)n1 (centres unmarked) [Example 225, 2-[(2,6-Dimethylphenyl)carbonyl]-5-(4,6-dimethylpyrimidin-2-yl)octahydropyrrolo[3,4-c]pyrrole]
20 | 6.08 | Cc1cc(C)nc(N2CC3CN(C(=O)c4cc(F)ccc4C)CC3C2)n1 (centres unmarked) [Example 226, 2-(4,6-Dimethylpyrimidin-2-yl)-5-[(5-fluoro-2-methylphenyl)carbonyl]octahydropyrrolo[3,4-c]pyrrole]
21 | 5.83 | Cc1ccc(C(=O)N2CC3CN(c4nc(C)cc(C)n4)CC3C2)c(C)c1 (centres unmarked) [Example 227, 2-[(2,4-Dimethylphenyl)carbonyl]-5-(4,6-dimethylpyrimidin-2-yl)octahydropyrrolo[3,4-c]pyrrole]
22 | 6.60 | Cc1cc(C)nc(N2CC3CN(C(=O)c4c(C)cccc4Cl)CC3C2)n1 (centres unmarked) [Example 230, 2-[(2-Chloro-6-methylphenyl)carbonyl]-5-(4,6-dimethylpyrimidin-2-yl)octahydropyrrolo[3,4-c]pyrrole]
23 | 7.28 | Cc1cc(C)nc(N2CC3CN(C(=O)c4cccc(F)c4I)CC3C2)n1 (centres unmarked) [Example 232, (5-(4,6-Dimethylpyrimidin-2-yl)hexahydropyrrolo[3,4-c]pyrrol-2(1H)-yl)(3-fluoro-2-iodophenyl)methanone]
24 | 5.68 | Cc1cc(C)nc(N2CC3CN(C(=O)c4cccnc4C(F)(F)F)CC3C2)n1 (centres unmarked) [Example 233, 2-(4,6-Dimethylpyrimidin-2-yl)-5-{[2-(trifluoromethyl)pyridin-3-yl]carbonyl}octahydropyrrolo[3,4-c]pyrrole]
25 | 5.00 | Cc1cc(C)nc(N2CC3CN(C(=O)c4cccnc4Br)CC3C2)n1 (centres unmarked) [Example 234]

Same assay, conditions: read-out: OR 2 Ki

Row | Compound | pKi
26 | Cc1nc(N2CC3CN(C(=O)c4c(F)cccc4-n4nccn4)CC3C2)cc(=O)[nH]1 (centres unmarked) [Example 252, 6-[5-{[2-Fluoro-6-(2H-1,2,3-triazol-2-yl)phenyl]carbonyl}hexahydropyrrolo[3,4-c]pyrrol-2(1H)-yl]-2-methylpyrimidin-4(3H)-one] | ≤ 5.00
